Reference: US20240010726A1, “LFA-1 SIGNALLING MEDIATOR FOR USE IN CANCER THERAPY” (Universität Basel, priority 2020, published 2024)

Assays:
[1] = system: PC3-PIP tumor cells; assay: Anti-PSMA CAR T cell in vivo experiment with Mg2+-restricted diet; set-up: species or system NSG mice; conditions: Mg^2+-depleted diet vs control diet; anti-PSMA CAR T cells i.v.
Protocol: FIG. 3: Magnesium regulates LFA-1 mediated T cell activation and cytotoxicity as well BiTE- and CAR T-cell functionality. (a) Glycolytic switch of murine WT and LFA-1^−/− CTLs upon injection of anti-CD3/28 Ab in medium containing 1.2 mM Mg^2+ and 0 mM Mg^2+, presented as quantification of summarized data with n=4 mice. (b) Calcium flux in WT and LFA-1^−/− Jurkat T cells stimulated with anti-CD3 Ab in 1.2 mM and 0 mM Mg^2+ medium, respectively. Cells were loaded with Fluo4, and signal intensity as recorded by plate reader, was normalized to unstimulated baseline values. […] Quantified results of n=3 mice with 3 technical replicates each. […] The effector to target cell ratio was 3:1. Results are quantified of n=3 mice with 3 technical replicates each. (e) Representative CD11a (LFA-1) surface expression on human naïve and EM CD8 T cells, PHA T cell blasts and REP T cells, assessed by flow cytometry. […] Data is presented as quantified results of n=5 healthy donors (f, g, h), n=3 healthy donors with 2 technical replicates each or n=1 healthy donor with 4 technical replicates (j). […] Data is presented as quantified results of n=1 healthy donor with 4 technical replicates. […] (p) Abundance of IFNγ in cell culture supernatants corresponding to the conditions depicted in (o) at 24 hours was determined by ELISA (n=8, 3 independent experiments). […] Tumor volume was monitored twice per week. […]

[2] = system: T2 target cells; type: cell-based, human
[3] = system: MC38-OVA tumor cells; assay: Murine MC38-OVA tumor model, intratumoral MgCl2 vs NaCl in bilateral tumors; type: in vivo, mice; conditions: for Tumor growth: 3 mM MgCl2 intratumoral vs 3 mM NaCl in contralateral tumor, every third day
Protocol: FIG. 1: Intratumoral magnesium administration improves adaptive anti-tumor immunity. (a) Schematic of experimental design. B1/6 mice, either immunized with OVA or left untreated, were inoculated subcutaneously with MC38-OVA tumor cells bilaterally on the flanks. From day 7, injection of 3 mM NaCl solution was applied in left flank tumor, whereas 3 mM MgCl2 solution was injected in contralateral tumor. This regimen was repeated every third day for a total of 8 cycles. (b) Tumor growth curves in non-immunized mice (n=20) (left panel), and immunized mice (n=19) (right panel). (c) Tumor growth curves in ±CD8 depleted mice (n=6-17). Results were pooled from 2 independent experiments, with n=6-12 mice each. (d) Absolute numbers of tumor-infiltrating CD8^+ T cells. (e) Number of tumor-infiltrating CD8^+ T cells positive for Ki67 (left panel), Granzyme B (middle panel) and CD25 (right panel). (f) Cell number of tumor-infiltrating CD8^+ T cells expressing PD-1 and Tim3. (g) Schematic of experimental design. B1/6 mice, immunized with OVA, were inoculated subcutaneously with MC38-OVA tumor cells unilaterally on the flank. From day 5, intratumoral injections of either 3 mM NaCl or 3 mM MgCl2 were initiated, and repeated every third day for 8 cycles. Mice were additionally injected with 200 μg i.p. of isotype control (IgG2a) or anti-PD-1 Ab on day 9, 12, and 15. (h) Tumor growth curves (n=13-14) and (i) host survival (n=13-14). Results were pooled from 2 independent experiments (b, h, i). Unless stated otherwise, 6 to 12 weeks old female mice were used for experiments. In assays with pre-immunized mice, mice were immunized 19 days before tumor implantation by subcutaneous injection of 100 μg of OVA protein (Invivogen) and 50 μg of CpG-B ODN 1826 (Eurogentec), resuspended in 100 μL of PBS. For tumor implantation, mice were inoculated subcutaneously onto the flanks with 0.5×10^6 MC38-OVA cells, resuspended in 100 μL of PBS. In bilateral tumor experiments, mice received 50 μL intra-tumoral injections of either 3 mM NaCl or 3 mM MgCl2 (both diluted in ddH2O). Injections of NaCl solution was applied in left flank tumor, whereas MgCl2 solution was injected in contralateral tumor. I.t. injections were initiated once tumors were palpable, usually between day 5 and 10 after tumor injection. Injections were repeated every third day. Tumor size was quantified using a caliper and tumor volume was calculated using a rational ellipse formula (α2×β×π6, α being the shorter axis and β the longer axis). […] Tumor tissue was isolated from mice, weighed and minced using razor blades. Tissue was then digested using accutase (PAA), collagenase IV (Worthington), hyaluronidase (Sigma), and DNAse type IV (Sigma) for 60 min at 37° C. with constant shaking. The cell suspensions were filtered using a cell strainer (70 μm). Precision Counting beads (Biolegend) were added before staining to quantify the number of cells per gram of tumor. Single cell suspensions were blocked with rat anti-mouse FcγIII/II receptor (CD16/CD32) blocking antibodies (‘Fc-block’) and stained with live/dead cell-exclusion dye. Cells were then incubated with fluorophore-conjugated antibodies directed against cell surface antigens, washed and resuspended in FACS buffer (PBS+2% FBS). For intracellular/intranuclear antigens, cells stained with cell surface antibodies were fixed and permeabilized using Foxp3/transcription factor staining buffer (eBioscience) prior to incubation with antibodies directed against intracellular antigens. CD8 T cells are essential for antitumor immunity. To explore the role of Mg^2+ in the tumor microenvironment, and specifically its functional impact on T cell immunity, we examined the effect of intratumoral (i.t.) Mg^2+ administration in the MC38-OVA tumor model. Specifically, mice were either immunized against ovalbumin (OVA) or left untreated before subcutaneous implantation of OVA-expressing MC38 colorectal carcinoma cells bilaterally on the flanks. […]

Q: For `[Mg+2]` [Mg^2+, Magnesium], which “CAR T cell-mediated tumor rejection (tumor growth)” value [1] is on record?
A: negatively impacted CAR T cell-mediated tumor-rejection

Q: What about the “Cytotoxicity of REP T cells (caspase-3 activity in T2 target cells)” value [2] of the same molecule?
A: significantly increased

Q: And the “Tumor-infiltrating CD8^+ T cells expressing PD-1 and Tim3” value ([3]; Mg^2+ treated vs NaCl tumors)?
A: significantly more often (co-)expressed

Q: And the “Tumor-infiltrating CD8^+ T cells positive for CD25” value ([3]; Mg^2+ treated vs NaCl tumors)?
A: more

Q: What about the “Tumor-infiltrating CD8^+ T cells positive for Granzyme B” value ([3]; Mg^2+ treated vs NaCl tumors) of the same molecule?
A: more

Q: And the “Tumor-infiltrating CD8^+ T cells positive for Ki67” value ([3]; Mg^2+ treated vs NaCl tumors)?
A: more

Q: What about the “Number of tumor-infiltrating CD8^+ T cells” value ([3]; Mg^2+ treated vs NaCl tumors, flow cytometry) of the same molecule?
A: increased

Q: What about the Tumor growth ([3]; OVA pre-immunized mice) of the same molecule?
A: significantly reduced tumor growth

Q: What about the Tumor growth ([3]; non-immunized mice) of the same molecule?
A: comparable
